One compound from patent EP0648759A1, “Antihistaminic compounds, process for their preparation and pharmaceutical compositions containing them” (ERREGIERRE S.p.A., priority 1993, dated 1995) can be followed below.

SMILES strings stand for the structures.

Assay [1] concerns the target T1, H₁ receptor (Cavia porcellus, UniProt P31389).
T1 construct: A portion of terminal ileum was excised and immersed in a bath for isolated organ; from tissue; host or cells: guinea pig isolated terminal ileum
In words: Binding assay under saturation kinetics conditions (Scatchard). Details: species or system guinea pig. The note with it: in the presence of TFZ 2 x 10⁻⁷ M. As to the method: These assays (Scatchard) were carried out under the same incubation conditions and according to the conclusive test method described under paragraph 1a), with the exception that the radioligand concentration was changed according to a range of concentrations comprised between 0.3 and 10 nM, in the presence of a concentration of antagonist TFZ of 2 x 10⁻⁷ M.

The target in assay [2] is T1, H₁ receptor. Description: Functional activity on guinea pig isolated ileum, histamine-induced contractions. In kind it is cell-based. As to the method: (§1) The test was essentially meant to characterize the type of activity of the molecules under examination by checking their antagonist activity versus H₁ receptor. To this end, the guinea pig isolated ileum was used for two different tests: a) evaluation of the antagonist activity towards the agonist histamine; b) evaluation of the antagonist activity towards the agonist acetylcholine. Said tests were carried out to check the specificity and selectivity levels of the moleculas under examination.
(§2) Male and female guinea pigs weighing approx. 250 g were used. A portion of terminal ileum was excised and immersed in a bath for isolated organ, in Tyrode solution, at 37°C. The antagonist activity was evaluated by determining the ability of the studied drug to modify the dose-effect curve built with increasing doses of agonist alone. Furthermore, in another series of experiments, increasing doses of the molecules under examination were tested in comparison with a submaximal dose of agonist.
The dose of histamine used was 6.8x10⁻⁸ M. The percentage of inhibition found after adding the tested drug to the bath for isolated organ versus the response obtained from the agonist alone was calculated. Six detections were carried out for each drug concentration. The results, calculated in terms of IC₅₀, corresponded to the drug concentrations responsible for a 50% reduction in the submaximal concentration of the agonist alone.

Assay [3] has as its system muscarinic cholinergic receptor. Description: Functional activity on guinea pig isolated ileum, acetylcholine-induced contractions. It counts as cell-based. The conditions noted are these: TFZ 5 x 10⁻⁷ M, dose corresponding to the IC₅₀ effective against histamine. As to the method:
as §1, §2
With a view to estimating the antagonist specificity level of the molecule TFZ under examination and taking into account the anticholinergic activity often associated with antihistaminic molecules, the capability of TFZ of antagonizing the acetylcholine (ACh) contraction effect on guinea pig isolated ileum was tested. […]

T1 sequence (P31389 whole entry): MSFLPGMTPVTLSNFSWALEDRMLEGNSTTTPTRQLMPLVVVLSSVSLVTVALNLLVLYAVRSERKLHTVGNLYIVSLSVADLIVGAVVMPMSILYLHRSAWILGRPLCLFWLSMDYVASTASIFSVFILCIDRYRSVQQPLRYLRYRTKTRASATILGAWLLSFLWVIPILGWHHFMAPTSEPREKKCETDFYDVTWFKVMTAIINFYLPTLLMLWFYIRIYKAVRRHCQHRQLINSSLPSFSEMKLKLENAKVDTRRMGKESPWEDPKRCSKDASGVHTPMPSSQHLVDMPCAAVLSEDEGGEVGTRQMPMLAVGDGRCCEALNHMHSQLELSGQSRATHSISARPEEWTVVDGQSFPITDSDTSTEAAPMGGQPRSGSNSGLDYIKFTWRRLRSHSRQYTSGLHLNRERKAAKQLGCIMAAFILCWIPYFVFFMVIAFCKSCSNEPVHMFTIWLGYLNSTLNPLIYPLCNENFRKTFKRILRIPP

Take `CC(C)(c1ccc(C(O)CCCN2CCC(C(O)(c3ccccc3)c3ccccc3)CC2)cc1)c1nn[nH]n1` (racemic) [TFZ, p-1-hydroxy-4-(4-hydroxydiphenylmethyl-1-piperidinyl)-butyl-2-(1H-tetrazol-5-yl)-isopropyl benzene]: at H₁ receptor [1], the “Bmax (density of the binding sites)” value is recorded as “no significant change”. The “IC₅₀, inhibition of histamine-submaximal contraction” value on H₁ receptor [2] (histamine 6.8 x 10⁻⁸ M, comparison in words, numbers only in Fig. 5) is given as “completely superimposable to that of MET I”. On H₁ receptor [2] (increasing doses added to the bath perfusion liquid, no agonist), the “agonist activity (contraction of the ileum smooth muscles)” value is “no agonist activity”. Besides, at H₁ receptor [2] (three TFZ concentrations, Fig. 4), the “type of antagonist activity towards histamine (Lineweaver-Burk)” value is “competitive antagonist activity”. Besides, in assay [3], the “inhibitory activity against acetylcholine (ACh) contraction effect” value is recorded as “no inhibitory activity”.
